# Patent US11160886B2, “Method for labeling of sensitive and thermosensitive targeting biomolecules with technetium based compounds” (BRACCO IMAGING SPA, priority 2016, dated 2021)
# How the values were obtained:
# [1] = Biodistribution in healthy rats; type: in vivo, Sprague-Dawley rats; conditions: for Pharmacokinetic profile: blood clearance: healthy animals, within the first 60 min p.i.; for Biodistribution: Blood / Biodistribution: Brain / Biodistribution: Heart / Biodistribution: Intestine / Biodistribution: Kidneys / Biodistribution: Liver / Biodistribution: Lungs / Biodistribution: Muscle / Biodistribution: Spleen / Biodistribution: Stomach / Biodistribution: Urine: healthy rats
# Procedure: Before injection, ^99mTc complexes were purified using a reversed-phase C18 Sep-Pack cartridge to remove the excess of unlabeled ligands. After purification, the activity recovered was further diluted with PBS to obtain a final solution that is <0.5% in EtOH content. The RCP and the stability of the purified complexes were evaluated prior to in vivo administration and for the succeeding 18 h.
# Biodistribution in healthy rats. Biodistribution in healthy rats was performed on complex 1, complex 2 and complex 9 in order to evaluate their pharmacokinetic profile and elimination pathways as well as their resistance to in vivo metabolism. Female Sprague-Dawley rats weighing 180-200 g were anesthetized with an intramuscular injection of a mixture of Zoletil (40 mg/kg) and xylazine (2 mg/kg). A jugular vein was surgically exposed and 100 μl (300-370 kBq) of the solution containing the selected [^99mTc(N)(PNP3OH)]-compound was injected. The rats (n=3) were scarified by cervical dislocation at different times after injection. The blood was withdrawn from the heart with a syringe immediately after death and quantified. Organs were excised, rinsed in saline, weighed, and the activity was counted in a Nal well counter.
# [2] = Sera and homogenates stability; type: in vitro ADME, human and rat; conditions: human and rat sera, 37° C., 3 h
# Procedure: Sera and Homogenates Stability.
# The in vitro stability of complex 1, complex 2, complex 9 and complex 11 was evaluated by monitoring the RCP at different time points using the following procedures. In a propylene test tube 50 μl of purified [^99mTc(N)(PNP3OH)]-compound were added to: a) 450 μl of human serum, b) 450 μl of rat serum, c) 450 μl of homogenate of rat liver and d) 450 μl of homogenate of rat kidneys. The resulting mixture was incubated at 37° C. for 4 h.
# The sample was loaded onto a cartridge, preconditioned with MeOH (1 ml) and equilibrated with water (1 ml), and rinsed with MeOH 5% (3 ml). The activity was eluted with a mixture of EtOH/saline 60% (1 ml). Each fraction was collected and the activity measured using a counter (Cobra II, Packard) to determinate the elution profile. 80% of the loaded activity was collected in the elution fraction. An aliquot of this solution (100 μl) was analyzed by HPLC to assess the degradation of the ^99mTc(N)-complexes (FIG. 11).
# [3] = Stability in the reaction solution as function of pH (FIG. 5); type: physicochemical
# Procedure: The variation of (%)RCY of complex 1 and complex 2 over the time (30 min vs 18 h), at different conditions, is shown in FIG. 5. […] Alternatively, free PNP3OH was directly used.
# [4] = Challenge reactions (transchelation) with excess Cys, GSH or EDTA, RCP by HPLC; type: physicochemical; conditions: Cys 10 mM; for % RCP after incubation with excess Cys: 37° C.
# Procedure: The transchelation studies were performed for some compounds monitoring by HPLC the radiochemical purity (RCP) of the complexes in presence of an excess of exchanging ligands over the time. The experiments were performed in triplicate.
# Challenge experiments were carried out on the purified [^99mTc(N)(PNP3OH)]-labeled small size compounds (complex 1, complex 2, complex 9 and complex 10) using an excess of glutathione (GSH) or Cys. An aliquot (50 μl) of an aqueous stock solution of cysteine hydrochloride (10 mM; 1 mM) was added to a propylene test tube containing PB (250 μl, 0.2 M; pH 7.4), water (100 μl) and the selected [^99mTc(N)(PNP3OH)]-compound (100 μl). The mixture was vortexed and incubated at 37° C. for 24 h. A control reaction containing an equal volume of water, instead of cysteine hydrochloride, was studied in parallel. At 30 min, 1, 3 and 24 h, aliquots of the reaction mixture were withdrawn and analyzed by HPLC chromatography. A similar procedure was applied using GSH (50 μl, 10 mM) as challenge ligand.
# For [^99mTc(N)(PNP3OH)(Cys-Gly-Lys-Gly-ApoMb)]^+ (“Cys-Gly-Lys-Gly” disclosed as SEQ ID NO: 1) additional experiments were conducted using EDTA (50 μl, 10 mM) as exchanging ligand.
smiles,measurement,setting,value
"CC(=O)NC1C[S][99Tc](#[N])[O]C1=O.COCCN(CCP(CO)CO)CCP(CO)CO [Complex 1, [^99mTc(N)(PNP3OH)(CysNAc)]]",Pharmacokinetic profile: blood clearance,[1],rapid blood clearance
same,Biodistribution: Blood,[1]; 2 min,1.68 ± 0.02 % IA/g
same,Biodistribution: Brain,[1]; 2 min,0.10 ± 0.01 % IA/g
same,Biodistribution: Heart,[1]; 2 min,0.54 ± 0.09 % IA/g
same,Biodistribution: Intestine,[1]; 2 min,0.70 ± 0.02 % IA/g
same,Biodistribution: Kidneys,[1]; 2 min,4.73 ± 0.37 % IA/g
same,Biodistribution: Liver,[1]; 2 min,1.73 ± 0.02 % IA/g
same,Biodistribution: Lungs,[1]; 2 min,1.11 ± 0.22 % IA/g
same,Biodistribution: Muscle,[1]; 2 min,0.32 ± 0.02 % IA/g
same,Biodistribution: Spleen,[1]; 2 min,0.40 ± 0.07 % IA/g
same,Biodistribution: Stomach,[1]; 2 min,0.39 ± 0.05 % IA/g
same,Biodistribution: Blood,[1]; 10 min,0.96 ± 0.03 % IA/g
same,Biodistribution: Brain,[1]; 10 min,0.05 ± 0.01 % IA/g
same,Biodistribution: Heart,[1]; 10 min,0.27 ± 0.01 % IA/g
same,Biodistribution: Intestine,[1]; 10 min,2.85 ± 0.67 % IA/g
same,Biodistribution: Kidneys,[1]; 10 min,4.07 ± 0.67 % IA/g
same,Biodistribution: Liver,[1]; 10 min,2.27 ± 0.01 % IA/g
same,Biodistribution: Lungs,[1]; 10 min,0.68 ± 0.03 % IA/g
same,Biodistribution: Muscle,[1]; 10 min,0.14 ± 0.01 % IA/g
same,Biodistribution: Spleen,[1]; 10 min,0.26 ± 0.00 % IA/g
same,Biodistribution: Stomach,[1]; 10 min,0.41 ± 0.09 % IA/g
same,Biodistribution: Urine,[1]; 10 min,31.28 ± 4.07 % IA/g
same,Biodistribution: Blood,[1]; 30 min,0.43 ± 0.09 % IA/g
same,Biodistribution: Brain,[1]; 30 min,0.04 ± 0.01 % IA/g
same,Biodistribution: Heart,[1]; 30 min,0.17 ± 0.07 % IA/g
same,Biodistribution: Intestine,[1]; 30 min,5.46 ± 3.28 % IA/g
same,Biodistribution: Kidneys,[1]; 30 min,2.47 ± 0.04 % IA/g
same,Biodistribution: Liver,[1]; 30 min,1.28 ± 0.03 % IA/g
same,Biodistribution: Lungs,[1]; 30 min,0.38 ± 0.15 % IA/g
same,Biodistribution: Muscle,[1]; 30 min,0.11 ± 0.00 % IA/g
same,Biodistribution: Spleen,[1]; 30 min,0.10 ± 0.01 % IA/g
same,Biodistribution: Stomach,[1]; 30 min,0.35 ± 0.02 % IA/g
same,Biodistribution: Blood,[1]; 60 min,0.11 ± 0.00 % IA/g
same,Biodistribution: Brain,[1]; 60 min,0.01 ± 0.00 % IA/g
same,Biodistribution: Heart,[1]; 60 min,0.06 ± 0.01 % IA/g
same,Biodistribution: Intestine,[1]; 60 min,10.07 ± 0.26 % IA/g
same,Biodistribution: Kidneys,[1]; 60 min,1.15 ± 0.12 % IA/g
same,Biodistribution: Liver,[1]; 60 min,0.99 ± 0.13 % IA/g
same,Biodistribution: Lungs,[1]; 60 min,0.14 ± 0.01 % IA/g
same,Biodistribution: Muscle,[1]; 60 min,0.08 ± 0.03 % IA/g
same,Biodistribution: Spleen,[1]; 60 min,0.10 ± 0.01 % IA/g
same,Biodistribution: Stomach,[1]; 60 min,0.24 ± 0.12 % IA/g
same,Biodistribution: Urine,[1]; 60 min,58.89 ± 2.27 % IA/g
same,Biodistribution: Blood,[1]; 120 min,0.06 ± 0.01 % IA/g
same,Biodistribution: Brain,[1]; 120 min,0.01 ± 0.00 % IA/g
same,Biodistribution: Heart,[1]; 120 min,0.02 ± 0.00 % IA/g
same,Biodistribution: Intestine,[1]; 120 min,0.57 ± 0.05 % IA/g
same,Biodistribution: Kidneys,[1]; 120 min,0.77 ± 0.26 % IA/g
same,Biodistribution: Liver,[1]; 120 min,0.54 ± 0.05 % IA/g
same,Biodistribution: Lungs,[1]; 120 min,0.10 ± 0.01 % IA/g
same,Biodistribution: Muscle,[1]; 120 min,0.02 ± 0.00 % IA/g
same,Biodistribution: Spleen,[1]; 120 min,0.09 ± 0.01 % IA/g
same,Biodistribution: Stomach,[1]; 120 min,0.25 ± 0.06 % IA/g
same,Biodistribution: Urine,[1]; 120 min,55.74 ± 14.87 % IA/g
same,Sera stability,[2],high sera stability
same,Stability in the reaction solution,[3]; pH 7.4,stable within 18 h
same,Stability in the reaction solution,[3]; pH 9,a progressive degradation was observed
"CCOC(=O)C(N)C[S][99Tc+]#[N].COCCN(CCP(CO)CO)CCP(CO)CO [Complex 2, [^99mTc(N)(PNP3OH)(CysOEt)]^+]",Pharmacokinetic profile: blood clearance,[1],rapid blood clearance
same,Biodistribution: Blood,[1]; 2 min,0.99 ± 0.18 % IA/g
same,Biodistribution: Brain,[1]; 2 min,0.05 ± 0.00 % IA/g
same,Biodistribution: Heart,[1]; 2 min,0.41 ± 0.07 % IA/g
same,Biodistribution: Intestine,[1]; 2 min,0.39 ± 0.09 % IA/g
same,Biodistribution: Kidneys,[1]; 2 min,5.38 ± 0.22 % IA/g
same,Biodistribution: Liver,[1]; 2 min,0.99 ± 0.28 % IA/g
same,Biodistribution: Lungs,[1]; 2 min,0.87 ± 0.17 % IA/g
same,Biodistribution: Muscle,[1]; 2 min,0.19 ± 0.07 % IA/g
same,Biodistribution: Spleen,[1]; 2 min,0.23 ± 0.01 % IA/g
same,Biodistribution: Stomach,[1]; 2 min,0.49 ± 0.05 % IA/g
same,Biodistribution: Urine,[1]; 2 min,16.32 ± 0.00 % IA/g
same,Biodistribution: Blood,[1]; 10 min,0.62 ± 0.11 % IA/g
same,Biodistribution: Brain,[1]; 10 min,0.07 ± 0.01 % IA/g
same,Biodistribution: Heart,[1]; 10 min,0.26 ± 0.01 % IA/g
same,Biodistribution: Intestine,[1]; 10 min,1.35 ± 0.19 % IA/g
same,Biodistribution: Kidneys,[1]; 10 min,6.20 ± 0.51 % IA/g
same,Biodistribution: Liver,[1]; 10 min,1.56 ± 0.06 % IA/g
same,Biodistribution: Lungs,[1]; 10 min,0.50 ± 0.04 % IA/g
same,Biodistribution: Muscle,[1]; 10 min,0.17 ± 0.04 % IA/g
same,Biodistribution: Spleen,[1]; 10 min,0.17 ± 0.00 % IA/g
same,Biodistribution: Stomach,[1]; 10 min,0.44 ± 0.08 % IA/g
same,Biodistribution: Urine,[1]; 10 min,25.65 ± 16.29 % IA/g
same,Biodistribution: Blood,[1]; 30 min,0.62 ± 0.06 % IA/g
same,Biodistribution: Brain,[1]; 30 min,0.05 ± 0.03 % IA/g
same,Biodistribution: Heart,[1]; 30 min,0.23 ± 0.02 % IA/g
same,Biodistribution: Intestine,[1]; 30 min,1.26 ± 0.42 % IA/g
same,Biodistribution: Kidneys,[1]; 30 min,6.43 ± 2.44 % IA/g
same,Biodistribution: Liver,[1]; 30 min,1.85 ± 0.13 % IA/g
same,Biodistribution: Lungs,[1]; 30 min,0.43 ± 0.00 % IA/g
same,Biodistribution: Muscle,[1]; 30 min,0.21 ± 0.01 % IA/g
same,Biodistribution: Spleen,[1]; 30 min,0.15 ± 0.00 % IA/g
same,Biodistribution: Stomach,[1]; 30 min,0.32 ± 0.02 % IA/g
same,Biodistribution: Urine,[1]; 30 min,17.06 ± 0.00 % IA/g
same,Biodistribution: Blood,[1]; 60 min,0.24 ± 0.06 % IA/g
same,Biodistribution: Brain,[1]; 60 min,0.02 ± 0.01 % IA/g
same,Biodistribution: Heart,[1]; 60 min,0.09 ± 0.03 % IA/g
same,Biodistribution: Intestine,[1]; 60 min,2.92 ± 0.26 % IA/g
same,Biodistribution: Kidneys,[1]; 60 min,2.63 ± 1.43 % IA/g
same,Biodistribution: Liver,[1]; 60 min,1.83 ± 0.05 % IA/g
same,Biodistribution: Lungs,[1]; 60 min,0.19 ± 0.05 % IA/g
same,Biodistribution: Muscle,[1]; 60 min,0.07 ± 0.04 % IA/g
same,Biodistribution: Spleen,[1]; 60 min,0.11 ± 0.05 % IA/g
same,Biodistribution: Stomach,[1]; 60 min,0.20 ± 0.12 % IA/g
same,Biodistribution: Urine,[1]; 60 min,40.14 ± 0.00 % IA/g
same,Biodistribution: Blood,[1]; 120 min,0.09 ± 0.09 % IA/g
same,Biodistribution: Brain,[1]; 120 min,0.01 ± 0.01 % IA/g
same,Biodistribution: Heart,[1]; 120 min,0.06 ± 0.06 % IA/g
same,Biodistribution: Intestine,[1]; 120 min,6.23 ± 0.35 % IA/g
same,Biodistribution: Kidneys,[1]; 120 min,1.67 ± 1.04 % IA/g
same,Biodistribution: Liver,[1]; 120 min,0.29 ± 0.77 % IA/g
same,Biodistribution: Lungs,[1]; 120 min,0.15 ± 0.14 % IA/g
same,Biodistribution: Muscle,[1]; 120 min,0.04 ± 0.04 % IA/g
same,Biodistribution: Spleen,[1]; 120 min,0.07 ± 0.04 % IA/g
same,Biodistribution: Stomach,[1]; 120 min,0.31 ± 0.16 % IA/g
same,Biodistribution: Urine,[1]; 120 min,20.10 ± 6.28 % IA/g
same,Sera stability,[2],high sera stability
same,Stability in the reaction solution,[3]; pH 7.4,stable within 18 h
same,Stability in the reaction solution,[3]; pH 9,a progressive degradation was observed
same,% RCP after incubation with excess Cys,[4]; 3 h,65.93%
same,% RCP after incubation with excess Cys,[4]; 24 h,23.32%
same,Stability toward Cys transchelation relative to neutral complexes,[4]; versus complex 1 and complex 11,higher stability toward Cys transchelation
